Values of other authors as cited in patent US8906890B2, “Very low-dosed solid oral dosage forms for HRT” (Bayer Intellectual Property GmbH, priority 2010, dated 2014).

Conditions: 2 mg E2 orally

C[C@]12CC[C@@H]3c4ccc(O)cc4CC[C@H]3[C@@H]1CC[C@@H]2O [E2, estradiol]
estrogen-related adverse events: increased estrogen-related adverse events
